Tests used:
IKKε = IKKε (Homo sapiens (Human), UniProt Q14164); assay: IKKε TR-FRET enzymatic assay; format: biochemical; conditions: read-out: IKKe IC50
hJAK2 = hJAK2 (Homo sapiens (Human), UniProt O60674); assay: hJAK2 LANCE TR-FRET enzymatic assay; format: biochemical; conditions: read-out: JAK2 IC50
TBK1 = TBK1 (Homo sapiens (Human), UniProt Q9UHD2); assay: TBK1 TR-FRET enzymatic assay;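 note: phosphorylation of a biotinylated Ser/Thr peptide by purified full-length recombinant TBK1, read by TR-FRET after 240 min at 25 °C, IC50 is the geometric mean of at least four runs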
Chain of TBK1 (Q9UHD2 whole entry): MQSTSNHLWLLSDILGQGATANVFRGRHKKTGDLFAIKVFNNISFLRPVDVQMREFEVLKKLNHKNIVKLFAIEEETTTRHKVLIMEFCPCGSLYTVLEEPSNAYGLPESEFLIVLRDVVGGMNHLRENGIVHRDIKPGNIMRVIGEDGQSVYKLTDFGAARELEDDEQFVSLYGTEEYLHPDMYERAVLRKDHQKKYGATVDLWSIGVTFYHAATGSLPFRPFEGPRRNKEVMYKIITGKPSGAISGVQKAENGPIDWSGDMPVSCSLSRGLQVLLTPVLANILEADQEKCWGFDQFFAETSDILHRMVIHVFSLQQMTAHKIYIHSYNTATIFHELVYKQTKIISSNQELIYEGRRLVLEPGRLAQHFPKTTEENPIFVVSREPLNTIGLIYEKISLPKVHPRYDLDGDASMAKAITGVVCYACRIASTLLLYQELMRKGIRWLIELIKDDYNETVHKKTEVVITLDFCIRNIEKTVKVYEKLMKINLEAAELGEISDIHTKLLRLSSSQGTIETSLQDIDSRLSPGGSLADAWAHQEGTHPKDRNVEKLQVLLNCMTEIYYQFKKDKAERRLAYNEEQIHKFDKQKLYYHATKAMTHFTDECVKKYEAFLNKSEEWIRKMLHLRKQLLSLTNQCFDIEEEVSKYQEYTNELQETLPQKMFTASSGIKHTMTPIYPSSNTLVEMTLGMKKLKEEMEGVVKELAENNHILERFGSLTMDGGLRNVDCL

Chain of hJAK2 (O60674 whole entry): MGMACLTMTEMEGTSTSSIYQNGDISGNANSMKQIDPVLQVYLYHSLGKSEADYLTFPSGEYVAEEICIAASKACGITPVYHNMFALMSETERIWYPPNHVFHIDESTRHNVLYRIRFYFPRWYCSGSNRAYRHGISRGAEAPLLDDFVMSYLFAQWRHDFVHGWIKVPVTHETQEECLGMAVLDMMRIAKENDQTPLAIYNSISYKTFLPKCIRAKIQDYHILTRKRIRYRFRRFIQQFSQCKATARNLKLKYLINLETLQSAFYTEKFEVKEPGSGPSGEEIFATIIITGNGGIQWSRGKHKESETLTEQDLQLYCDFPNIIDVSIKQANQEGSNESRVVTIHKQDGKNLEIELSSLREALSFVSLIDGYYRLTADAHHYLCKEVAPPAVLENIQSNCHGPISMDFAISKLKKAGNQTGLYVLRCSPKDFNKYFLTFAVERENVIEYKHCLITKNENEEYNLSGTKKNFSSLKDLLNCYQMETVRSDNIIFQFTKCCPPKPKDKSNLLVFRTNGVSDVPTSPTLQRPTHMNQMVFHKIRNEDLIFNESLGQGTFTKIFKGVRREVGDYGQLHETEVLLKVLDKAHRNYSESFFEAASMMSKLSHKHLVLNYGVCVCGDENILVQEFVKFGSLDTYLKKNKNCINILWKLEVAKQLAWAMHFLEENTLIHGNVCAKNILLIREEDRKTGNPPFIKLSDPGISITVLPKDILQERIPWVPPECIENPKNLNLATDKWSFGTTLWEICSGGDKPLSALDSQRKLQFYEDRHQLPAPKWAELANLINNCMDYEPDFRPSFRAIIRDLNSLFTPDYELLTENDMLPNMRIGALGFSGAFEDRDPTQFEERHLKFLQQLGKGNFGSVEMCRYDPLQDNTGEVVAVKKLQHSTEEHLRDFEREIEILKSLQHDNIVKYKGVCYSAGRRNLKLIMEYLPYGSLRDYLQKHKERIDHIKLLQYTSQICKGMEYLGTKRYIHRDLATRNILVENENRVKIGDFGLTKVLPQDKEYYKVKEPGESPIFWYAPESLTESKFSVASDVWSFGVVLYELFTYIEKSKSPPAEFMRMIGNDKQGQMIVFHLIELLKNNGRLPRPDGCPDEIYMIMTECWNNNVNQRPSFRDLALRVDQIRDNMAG
Chain of IKKε (Q14164 whole entry): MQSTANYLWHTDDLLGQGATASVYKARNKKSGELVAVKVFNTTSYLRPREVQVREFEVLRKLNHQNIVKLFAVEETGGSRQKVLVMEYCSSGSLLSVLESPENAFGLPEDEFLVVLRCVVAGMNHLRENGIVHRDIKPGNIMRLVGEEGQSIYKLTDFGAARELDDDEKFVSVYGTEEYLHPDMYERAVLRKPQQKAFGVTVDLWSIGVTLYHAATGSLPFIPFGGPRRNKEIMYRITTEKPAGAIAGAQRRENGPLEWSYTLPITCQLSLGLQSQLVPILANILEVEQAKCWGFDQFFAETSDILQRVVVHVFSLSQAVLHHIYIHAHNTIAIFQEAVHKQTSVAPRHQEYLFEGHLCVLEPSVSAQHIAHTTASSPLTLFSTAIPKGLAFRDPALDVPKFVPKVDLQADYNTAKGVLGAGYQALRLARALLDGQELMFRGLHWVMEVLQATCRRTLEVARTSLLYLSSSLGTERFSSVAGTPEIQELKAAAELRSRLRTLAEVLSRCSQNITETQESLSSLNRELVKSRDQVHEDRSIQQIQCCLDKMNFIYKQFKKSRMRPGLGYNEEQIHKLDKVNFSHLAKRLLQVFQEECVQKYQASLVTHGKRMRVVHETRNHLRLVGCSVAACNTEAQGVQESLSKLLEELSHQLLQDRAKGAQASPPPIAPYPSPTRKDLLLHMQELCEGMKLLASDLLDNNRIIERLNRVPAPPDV

Work on C[C@H](O)C(=O)N1CCCC(Oc2ccc(-c3ncnc(Nc4ccc(N5CCN(C6COC6)CC5)cc4)n3)cc2C#N)CC1 (stereo partly drawn) [Example 359, 2-((1-((S)-2-hydroxypropanoyl)azepan-4-yl)oxy)-5-(4-((4-(4-(oxetan-3-yl)piperazin-1-yl)phenyl)amino)-1,3,5-triazin-2-yl)benzonitrile] yielded an IC50 (IKKε) of 37 nM, an IC50 (hJAK2) of 995 nM and an IC50 (TBK1) of 17 nM.

CCn1cc(Nc2ncnc(-c3ccc(O[C@H]4CCN(C(=O)CO)C[C@H]4F)c(C#N)c3)n2)cn1 [Example 360, 5-(4-((1-ethyl-1H-pyrazol-4-yl)amino)-1,3,5-triazin-2-yl)-2-(((3R,4S)-3-fluoro-1-(2-hydroxyacetyl)piperidin-4-yl)oxy)benzonitrile] was tested, and the IC50 (IKKε) was 2 nM, the IC50 (hJAK2) was 185 nM and the IC50 (TBK1) was 3 nM.

With N#Cc1cc(-c2ncnc(Nc3cnn(CC(F)F)c3)n2)ccc1O[C@H]1CCN(C(=O)CO)C[C@H]1F [Example 361, 5-(4-((1-(2,2-difluoroethyl)-1H-pyrazol-4-yl)amino)-1,3,5-triazin-2-yl)-2-(((3R,4S)-3-fluoro-1-(2-hydroxyacetyl)piperidin-4-yl)oxy)benzonitrile] the IC50 (IKKε) was 1 nM, the IC50 (hJAK2) was 317 nM and the IC50 (TBK1) was 2 nM.

C[C@H](O)C(=O)N1CC[C@H](Oc2ccc(-c3ncnc(Nc4ccc(N5CCCOCC5)cc4)n3)cc2C#N)[C@H](F)C1 [Example 363, 5-(4-((4-(1,4-oxazepan-4-yl)phenyl)amino)-1,3,5-triazin-2-yl)-2-(((3R,4S)-3-fluoro-1-((S)-2-hydroxypropanoyl)piperidin-4-yl)oxy)benzonitrile] was tested, and the IC50 (IKKε) was 1 nM, the IC50 (hJAK2) was 665 nM and the IC50 (TBK1) was 3 nM.

For C[C@H](O)C(=O)N1CC[C@H](Oc2ccc(-c3ncnc(Nc4ccc(N5CC6(COC6)C5)cc4)n3)cc2C#N)[C@H](F)C1 [Example 364, 5-(4-((4-(2-oxa-6-azaspiro[3.3]heptan-6-yl)phenyl)amino)-1,3,5-triazin-2-yl)-2-(((3R,4S)-3-fluoro-1-((S)-2-hydroxypropanoyl)piperidin-4-yl)oxy)benzonitrile], the IC50 (IKKε) was 4 nM, the IC50 (hJAK2) was 634 nM and the IC50 (TBK1) was 5 nM.

C[C@H](O)C(=O)N1CC[C@H](Oc2ccc(-c3ncnc(Nc4ccc(N5CCC6(CC5)COC6)cc4)n3)cc2C#N)[C@H](F)C1 [Example 365, 5-(4-((4-(2-oxa-7-azaspiro[3.5]nonan-7-yl)phenyl)amino)-1,3,5-triazin-2-yl)-2-(((3R,4S)-3-fluoro-1-((S)-2-hydroxypropanoyl)piperidin-4-yl)oxy)benzonitrile] gave an IC50 (IKKε) of 2 nM, an IC50 (hJAK2) of 474 nM and an IC50 (TBK1) of 4 nM.

C[C@H](O)C(=O)N1CC[C@H](Oc2ccc(-c3ncnc(Nc4ccc(N5CCN(C6COC6)CC5)c(F)c4)n3)cc2C#N)[C@H](F)C1 [Example 367, 2-(((3R,4S)-3-fluoro-1-((S)-2-hydroxypropanoyl)piperidin-4-yl)oxy)-5-(4-((3-fluoro-4-(4-(oxetan-3-yl)piperazin-1-yl)phenyl)amino)-1,3,5-triazin-2-yl)benzonitrile] gave an IC50 (IKKε) of 2 nM, an IC50 (hJAK2) of at least 1000 nM and an IC50 (TBK1) of 3 nM.

For N#Cc1cc(-c2ncnc(Nc3ccc(N4CCN(C5COC5)CC4)c(C(F)(F)F)c3)n2)ccc1O[C@H]1CCN(C(=O)CO)C[C@H]1F [Example 368, 2-(((3R,4S)-3-fluoro-1-(2-hydroxyacetyl)piperidin-4-yl)oxy)-5-(4-((4-(4-(oxetan-3-yl)piperazin-1-yl)-3-(trifluoromethyl)phenyl)amino)-1,3,5-triazin-2-yl)benzonitrile], the IC50 (IKKε) was 2 nM, the IC50 (hJAK2) was 225 nM and the IC50 (TBK1) was 3 nM.

Compound C[C@H](O)C(=O)N1CC[C@H](Oc2ccc(-c3ncnc(Nc4ccc(N5CCN(C6COC6)CC5)c(C(F)(F)F)c4)n3)cc2C#N)[C@H](F)C1 [Example 370, 2-(((3R,4S)-3-fluoro-1-((S)-2-hydroxypropanoyl)piperidin-4-yl)oxy)-5-(4-((4-(4-(oxetan-3-yl)piperazin-1-yl)-3-(trifluoromethyl)phenyl)amino)-1,3,5-triazin-2-yl)benzonitrile] has an IC50 (IKKε) of 8 nM, an IC50 (hJAK2) of 875 nM and an IC50 (TBK1) of 5 nM.

C[C@H](O)C(=O)N1CC[C@H](Oc2ccc(-c3ncnc(Nc4ccc(N5CCN(C6COC6)CC5)c(C(F)F)c4)n3)cc2C#N)[C@H](F)C1 [Example 371, 5-(4-((3-(difluoromethyl)-4-(4-(oxetan-3-yl)piperazin-1-yl)phenyl)amino)-1,3,5-triazin-2-yl)-2-(((3R,4S)-3-fluoro-1-((S)-2-hydroxypropanoyl)piperidin-4-yl)oxy)benzonitrile] was tested, and the IC50 (IKKε) was 1 nM, the IC50 (hJAK2) was 989 nM and the IC50 (TBK1) was 2 nM.

Work on N#Cc1cc(-c2ncnc(Nc3ccc(N4CCN(C5COC5)CC4)c(F)c3)n2)ccc1O[C@H]1CCN(C(=O)[C@@H]2CCC(=O)N2)C[C@H]1F [Example 372, 2-(((3R,4S)-3-fluoro-1-((S)-5-oxopyrrolidine-2-carbonyl)piperidin-4-yl)oxy)-5-(4-((3-fluoro-4-(4-(oxetan-3-yl)piperazin-1-yl)phenyl)amino)-1,3,5-triazin-2-yl)benzonitrile] yielded an IC50 (IKKε) of 5 nM, an IC50 (hJAK2) of 305 nM and an IC50 (TBK1) of 4 nM.

In the case of N#Cc1cc(-c2ncnc(Nc3ccc(N4CCN(C5COC5)CC4)c(F)c3)n2)ccc1O[C@H]1CCN(C(=O)c2cnn[nH]2)C[C@H]1F [Example 373, 2-(((3R,4S)-3-fluoro-1-(1H-1,2,3-triazole-5-carbonyl)piperidin-4-yl)oxy)-5-(4-((3-fluoro-4-(4-(oxetan-3-yl)piperazin-1-yl)phenyl)amino)-1,3,5-triazin-2-yl)benzonitrile], the IC50 (IKKε) is reported as 1 nM, the IC50 (hJAK2) is reported as 146 nM and the IC50 (TBK1) is reported as 2 nM.

For N#Cc1cc(-c2ncnc(Nc3ccc(N4CCN(C5COC5)CC4)cc3F)n2)ccc1O[C@H]1CCN(C(=O)[C@@H]2CCC(=O)N2)C[C@H]1F [Example 374, 2-(((3R,4S)-3-fluoro-1-((S)-5-oxopyrrolidine-2-carbonyl)piperidin-4-yl)oxy)-5-(4-((2-fluoro-4-(4-(oxetan-3-yl)piperazin-1-yl)phenyl)amino)-1,3,5-triazin-2-yl)benzonitrile], the IC50 (IKKε) was at least 1000 nM, the IC50 (hJAK2) was at least 1000 nM and the IC50 (TBK1) was 1000 nM.

C[C@H](O)C(=O)N1CC[C@H](Oc2ccc(-c3ncnc(Nc4ccc(N5CCN(C6COC6)CC5)cc4F)n3)cc2C#N)[C@H](F)C1 [Example 375, 2-(((3R,4S)-3-fluoro-1-((S)-2-hydroxypropanoyl)piperidin-4-yl)oxy)-5-(4-((2-fluoro-4-(4-(oxetan-3-yl)piperazin-1-yl)phenyl)amino)-1,3,5-triazin-2-yl)benzonitrile] was tested, and the IC50 (IKKε) was at least 1000 nM, the IC50 (hJAK2) was at least 1000 nM and the IC50 (TBK1) was 1000 nM.

Work on N#Cc1cc(-c2ncnc(Nc3ccc(N4CCN(C5COC5)CC4)cc3)n2)ccc1O[C@H]1CCN(C(=O)c2cn(CCO)nn2)C[C@H]1F [Example 376] yielded an IC50 (IKKε) of 3 nM, an IC50 (hJAK2) of 127 nM and an IC50 (TBK1) of 5 nM.

C[C@H](O)C(=O)N1CC[C@H](Oc2ccc(-c3ncnc(Nc4ccc(N5CCN(C6COC6)CC5)nc4)n3)cc2C#N)[C@H](F)C1 [Example 379, 2-(((3R,4S)-3-fluoro-1-((S)-2-hydroxypropanoyl)piperidin-4-yl)oxy)-5-(4-((6-(4-(oxetan-3-yl)piperazin-1-yl)pyridin-3-yl)amino)-1,3,5-triazin-2-yl)benzonitrile] gave an IC50 (IKKε) of 3 nM, an IC50 (hJAK2) of at least 1000 nM and an IC50 (TBK1) of 5 nM.

CCOC(=O)c1cccc(Nc2ncnc(-c3ccc(O[C@H]4CCN(C(=O)[C@H](C)O)C[C@H]4F)c(C#N)c3)n2)c1 [Example 380, Ethyl 3-((4-(3-cyano-4-(((3R,4S)-3-fluoro-1-((S)-2-hydroxypropanoyl)piperidin-4-yl)oxy)phenyl)-1,3,5-triazin-2-yl)amino)benzoate] showed an IC50 (IKKε) of 8 nM, an IC50 (hJAK2) of 891 nM and an IC50 (TBK1) of 6 nM.

C[C@H](O)C(=O)N1CC[C@H](Oc2ccc(-c3ncnc(Nc4ccc(C(C)(C)O)nc4)n3)cc2C#N)[C@H](F)C1 [Example 382, 2-(((3R,4S)-3-fluoro-1-((S)-2-hydroxypropanoyl)piperidin-4-yl)oxy)-5-(4-((6-(2-hydroxypropan-2-yl)pyridin-3-yl)amino)-1,3,5-triazin-2-yl)benzonitrile] showed an IC50 (IKKε) of 3 nM, an IC50 (hJAK2) of at least 1000 nM and an IC50 (TBK1) of 3 nM.

With C[C@H](O)C(=O)N1CC[C@H](Oc2ccc(-c3ncnc(Nc4ccc(N5CCOC[C@H]5CO)cc4)n3)cc2C#N)[C@H](F)C1 [Example 383, 2-(((3R,4S)-3-fluoro-1-((S)-2-hydroxypropanoyl)piperidin-4-yl)oxy)-5-(4-((4-((R)-3-(hydroxymethyl)morpholino)phenyl)amino)-1,3,5-triazin-2-yl)benzonitrile] the IC50 (IKKε) was 1 nM, the IC50 (hJAK2) was 568 nM and the IC50 (TBK1) was 2 nM.

In the case of N#Cc1cc(-c2ncnc(Nc3ccc(N4CCOC[C@H]4CO)cc3)n2)ccc1O[C@H]1CCN(C(=O)CO)C[C@H]1F [Example 384, 2-(((3R,4S)-3-fluoro-1-(2-hydroxyacetyl)piperidin-4-yl)oxy)-5-(4-((4-((R)-3-(hydroxymethyl)morpholino)phenyl)amino)-1,3,5-triazin-2-yl)benzonitrile], the IC50 (IKKε) is reported as 1 nM, the IC50 (hJAK2) is reported as 189 nM and the IC50 (TBK1) is reported as 2 nM.

With C[C@H](O)C(=O)N1CC[C@H](Oc2ccc(-c3ncnc(Nc4ccc5c(c4)NC(=O)C5(C)C)n3)cc2C#N)[C@H](F)C1 [Example 385, 5-(4-((3,3-dimethyl-2-oxoindolin-6-yl)amino)-1,3,5-triazin-2-yl)-2-(((3R,4S)-3-fluoro-1-((8)-2-hydroxypropanoyl)piperidin-4-yl)oxy)benzonitrile] the IC50 (IKKε) was 3 nM, the IC50 (hJAK2) was 888 nM and the IC50 (TBK1) was 2 nM.

With C[C@H](O)C(=O)N1CC[C@H](Oc2ccc(-c3ncnc(Nc4ccnc(C(C)(C)O)c4)n3)cc2C#N)[C@H](F)C1 [Example 386, 2-(((3R,4S)-3-fluoro-1-((S)-2-hydroxypropanoyl)piperidin-4-yl)oxy)-5-(4-((2-(2-hydroxypropan-2-yl)pyridin-4-yl)amino)-1,3,5-triazin-2-yl)benzonitrile] the IC50 (IKKε) was 6 nM, the IC50 (hJAK2) was at least 1000 nM and the IC50 (TBK1) was 4 nM.

From patent publication US10040781B2, “Tank-binding kinase inhibitor compounds” (Gilead Sciences, Inc., priority 2014, dated 2018)
